Measured values reported in publication PMC8582824, “Targeting DDX3X Helicase Activity with BA103 Shows Promising Therapeutic Effects in Preclinical Glioblastoma Models” (Cancers, 2021).

Legend:
[1] = Parallel artificial membrane permeability assay (PAMPA); type: in vitro ADME; settings: for Papp at 5 h, 0.5 mM: pH 7.4, read-out: AppP (apparent permeability)
Method: Preliminary in vitro ADME analysis was performed to early evaluate the pharmacokinetic (PK) profile of our compounds (Figure 8). Aqueous solubility was calculated by LC-MS-MS analysis. An aliquot of 1 mg of compound was stirred for 24 h at 27 °C in 1 mL of water. The mixture was filtered, and the quantity of solubilized compound was determined. Passive permeability was determined using parallel artificial membrane permeability assay (PAMPA). Microsomal metabolic stability was determined by LC-UV-MS analysis by incubating compounds with human liver microsomes at 37 °C for 60 min (for details, see the Supporting Information).
Chemicals. All solvents, reagents, were from Sigma-Aldrich Srl (Milan, Italy). Dodecane was purchased from Fluka (Milan, Italy). Pooled Male Donors 20 mg mL-1 HLM were from BD Gentest-Biosciences (San Jose, California). Milli-Q quality water (Millipore, Milford, MA, USA) was used. Hydrophobic filter plates (MultiScreen-IP, Clear Plates, 0.45 μm diameter pore size), 96-well microplates, and 96-well UV-transparent microplates were obtained from Millipore (Bedford, MA, USA). […]
Parallel Artificial Membrane Permeability Assay (PAMPA):
Donor solution (0.5 mM) was prepared by diluting 1 mM dimethylsulfoxide (DMSO) compound stock solution using phosphate buffer (pH 7.4, 0.025 M). Filters were coated with 5 μL of a 1% (w/v) dodecane solution of phosphatidylcholine prepared from CHCl3 solution 10% w/v, for intestinal permeability. Donor solution (150 μL) was added to each well of the filter plate. To each well of the acceptor plate were added 300 μL of solution (50% DMSO in phosphate buffer). All compounds were tested in three different plates on different days. The sandwich was incubated for 5 h at room temperature under gentle shaking. After the incubation time, the plates were separated, and samples were taken from both receiver and donor sides and analyzed using LC with UV detection at 280 nm.
LC analysis were performed with a Varian Prostar HPLC system (Varian Analytical Instruments, USA) equipped with a binary pump with a manual injection valve and model Prostar 325 UV-VIS Detector.
Chromatographic separation were conducted using a Polaris C18-A column (150-4.6 mm, 5 μm particle size) at a flow rate of 0.8 mL min-1 with a mobile phase composed of 60% ACN/40% H2O.
Permeability (Papp) for PAMPA was calculated according to the following equation, obtained from Wohnsland and Faller and Sugano et al. equation with some modification in order to obtain permeability […]
where VA is the volume in the acceptor well, VD is the volume in the donor well (cm3), A is the “effective area” of the membrane (cm2), t is the incubation time (s) and r the ratio between drug concentration in the acceptor and equilibrium concentration of the drug in the total volume (VD+VA). Drug concentration is estimated by using the peak area integration.
Membrane retentions (%) were calculated according to the following equation: […]
where r is the ratio between drug concentration in the acceptor and equilibrium concentration, D, A, and Eq represented drug concentration in the donor, acceptor and equilibrium solution, respectively. […]
15 min. The flow rate was 0.2 mL min-1 and injection volume was 5 μL. The instrument operated in positive mode and parameters were: detector 1850 V, drying gas pressure 25.0 psi, desolvation temperature 300.0 °C, nebulizing gas 40.0 psi, needle 5000 V and shield 600 V. Nitrogen was used as nebulizer gas and drying gas.
Collision induced dissociation was performed using Argon as the collision gas at a pressure of 1.8 mTorr in […]
Microsomal Stability Assay.
Each compound in DMSO solution was incubated at 37 °C for 60 min in 125 mM phosphate buffer (pH 7.4), 5 μL of human liver microsomal protein (0.2 mg mL-1), in the presence of a NADPH-generating system at a final […]
reaction was stopped by cooling on ice and adding 1.0 mL of acetonitrile. The reaction mixtures were then centrifuged, and the parent drug and metabolites were subsequently determined by LC-UV-MS. […]

U87 cells = test: MTS cytotoxicity assay, U87 cells; type: cell-based; settings: for mean absorbance at 490 nm (MTS): 72 h
Method: For CellTiter 96® Aqueous One Solution Cell Proliferation Assay (MTS) (Promega, Madison, WI, USA), cells were seeded at 5 × 10^3 per well in 96-well plates in quadruplicate together a control with no cells to evaluate the background. After 24 h, the culture medium was removed, and fresh medium containing increasing concentrations of chemical compounds was added to cells. […] DMSO was the vehicle used for dilution of the compounds, and its final concentration on cells was less than 0.2%. Medium-only containing wells were included as controls. Cells were incubated with compounds at different concentrations for 72 h, then, 20 µL of CellTiter 96® AQueous One Solution Reagent was added into each well. After 3 h at 37 °C in a humidified, 5% CO2 atmosphere, the absorbance at 492 nm was recorded using an EZREAD400 (Biochrom, Cambridge, United Kingdom) plate reader. The average 490 nm absorbance from the “no cell” control wells was subtracted from all other values to yield background-corrected absorbance. Dose–response curves and CC50 values have been calculated by plotting the absorbance data as a function of inhibitor concentrations and fitting the data by least-squares nonlinear regression, according to the method of Marquardt–Levenberg, with the computer program GraphPad Prism 6.0.
Cells were incubated with a scalar concentration of DDX3X inhibitors, and after 72 h of treatment, cell viability was assessed by cytotoxicity assay. […] Compounds 4, 6, and BA103 were also evaluated against BJ primary fibroblasts; compound 4 has a cytotoxicity value of 84.7 μM; on the contrary, compounds 6 and BA103 were not toxic up to 200 μM concentration. This further excluded a possible nonspecific cytotoxic effect. […] Due to its interesting profile, compound BA103 was further tested against additional pulmonary (A549), breast (MDA-MB-231), colorectal (HCT-116), osteosarcoma (U2OS), rhabdomyosarcoma (RD18), GBM (DBTRG, U87, and U251) and medulloblastoma (DAOY) cancer cell lines.
Figure 5 Cytotoxicity of selected compounds. Compounds were assayed on DU-145, PC3, HepG2, Huh-7, HN6, U251, and U87 cell lines. The concentration of the compound, which reduced the number of viable cells by 50% (CC50), was determined by dose–response curve, and the mean CC50 value for each cell line was calculated by triplicate assays (raw data from U87 and U251 cells with dose–response curves used for the calculation of CC50 in Table S1 and Figure S2).
Table S1: Raw data of optical absorbance at 490 nm from MTS assay in U87 and U251 cells. Tables contain
means with SD of at least 5 different values that were used for preparation of figure 5.

SMILES	AppP (apparent permeability) [1]	Memb. Ret. % (membrane retention) [1] [%]	Papp at 5 h, 0.5 mM [1] [×10⁻⁶ cm/s]	mean absorbance at 490 nm (MTS) (U87 cells; U87, 0,01 uM)	mean absorbance at 490 nm (MTS) (U87 cells; U87, 0,1 uM)	mean absorbance at 490 nm (MTS) (U87 cells; U87, 1 uM)	mean absorbance at 490 nm (MTS) (U87 cells; U87, 10 uM)	mean absorbance at 490 nm (MTS) (U87 cells; U87, 100 uM)	CC50 (U87 cells; U87, 72 h)
CCCCc1cn(-c2ccc(NC(=O)Nc3ccccc3C(F)(F)F)cc2)nn1 [BA103, 1-(4-(4-Butyl-1H-1,2,3-triazol-1-yl)phenyl)-3-(2-(trifluoromethyl)phenyl)urea]	good values of passive permeability	23.9	7.47	1,598	1,132	0,959	0,804	0,566	low micromolar range
CCCCc1cn(-c2ccc(NC(=O)Nc3ccccc3C)cc2)nn1 [Compound 1, reference compound]	2.86 ×10⁻⁶ cm/s	19.1	–	2,027	2,018	2,000	1,584	0,465	–
CCCCc1nnc(-c2ccc(NC(=O)Nc3ccccc3C(F)(F)F)cc2)o1 [Compound 3, 1-(4-(5-Butyl-1,3,4-oxadiazol-2-yl)phenyl)-3-(2-(trifluoromethyl)phenyl)urea]	good values of passive permeability	10.3	9.75	1,350	1,140	1,178	1,065	0,568	–
CCCCc1nnc(-c2ccc(NC(=O)Nc3ccccc3C(F)(F)F)cc2)[nH]1 [Compound 4, 1-(4-(5-Butyl-4H-1,2,4-triazol-3-yl)phenyl)-3-(2-(trifluoromethyl)phenyl)urea]	very low passive permeability	2.3	< 0.1	1,906	1,293	0,941	0,784	0,162	–
CCCCn1nnc(-c2ccc(NC(=O)Nc3ccccc3C(F)(F)F)cc2)n1 [Compound 6, 1-(4-(2-Butyl-2H-tetrazol-5-yl)phenyl)-3-(2-(trifluoromethyl)phenyl)urea]	good values of passive permeability	21.6	10.2	1,944	1,964	2,007	1,387	0,540	–
CC(C)CCc1cn(-c2ccc(NC(=O)Nc3cccc4cnccc34)cn2)nn1 [Compound 10, 1-(6-(4-Isopentyl-1H-1,2,3-triazol-1-yl)pyridin-3-yl)-3-(isoquinolin-5-yl)urea]	–	11.3	1.21	1,863	1,379	1,165	0,858	0,467	–
